According to a melting point compilation (Tetko et al.):

| melting point | Structure (SMILES) |
| --- | --- |
| 284 to 286 °C | Cc1[nH]c2c(F)cccc2c(=O)c1C |
| 178 to 180 °C | Cc1n[nH]c(C)c1CO |
| 54 to 56 °C | Fc1ccc(-c2nc(CCl)cs2)cc1 |
| 216 to 218 °C | CS(=O)(=O)c1ccc(C(N)=S)cc1 |
| 249 to 251 °C | Cc1ccc(=O)n(CC(=O)O)n1 |
| 88 to 90 °C | CCCOc1ccc(C(=O)NN)cc1 |
| 139 to 141 °C | Cc1cc(C)c(CN)c(=O)[nH]1 |
| 80 to 82 °C | CC(N)(CO)C1CCCCC1 (configuration not stated) |
| 75 to 77 °C | O=C(Nc1cccc2cccnc12)OCC(F)(F)F |
| 189 to 191 °C | O=C(CSc1ccccc1C(=O)O)c1ccc(-c2ccccc2)cc1 |
| 127 to 135 °C | Cc1ccc(S(=O)(=O)N2CCOCC2)cc1N |
| 190 to 192 °C | NC(=O)c1cc(-c2cccs2)on1 |
| 136 to 138 °C | COC(=O)c1c[nH]c(C)n1 |
| 190 to 192 °C | O=C(O)c1cc([N+](=O)[O-])cn1Cc1sccc1Br |
| 179 to 181 °C | Cn1c(Cl)nnc1-c1ccc(Cl)cc1 |
| 169 to 171 °C | O=C(Nc1ccc(Br)cn1)C1CCCNC1 (configuration not stated) |
| 180 to 182 °C | Cc1ccc(-c2nnc(N)s2)c(C)c1 |
| 56 to 58 °C | COC(=O)c1ccc(Cl)nc1Cl |
| 106 to 108 °C | CC1Oc2ccccc2OC1C(=O)O (configuration not stated) |
| 245 to 247 °C | Cn1cc(C(N)C(=O)O)cn1 (configuration not stated) |
| 169 to 171 °C | CC(NC(=O)c1ccc(Br)o1)C(=O)O (configuration not stated) |
| 50 to 52 °C | COC(=O)COc1c(C)cc(C=O)cc1C |
| 216 to 218 °C | Nc1nc(Cl)ccc1C(=O)O |
| 213 to 215 °C | O=CN1CC(=O)NC(=O)C1 |
| 225 to 227 °C | O=C(O)C1CCN(c2ccc(S(=O)(=O)N3CCOCC3)cc2[N+](=O)[O-])CC1 |

| melting point | Structure (SMILES) |
| --- | --- |
| 226 to 228 °C | Clc1ccc2[nH]c3c(c2c1)CNCC3 |
| 184 to 186 °C | CC(C)Sc1ccc([N+](=O)[O-])cc1C(=O)O |
| 51 to 53 °C | Cn1ccnc1C(N)c1ccccc1 (configuration not stated) |
| 149 to 151 °C | Cc1nnc2ccc(Br)cn12 |
| 114 to 116 °C | Cc1nnc(CO)n1C1CC1 |
| 186 to 188 °C | NS(=O)(=O)c1ccc(F)c(C(=O)O)c1 |
| 68 to 70 °C | Nc1ccnn1Cc1ccccn1 |
| 130 to 132 °C | CCOC(=O)C(=O)Cc1ccc2ccccc2n1 |
| 212 to 214 °C | O=C(O)c1ccc(S(=O)(=O)CC(F)F)cc1 |
| 134 to 136 °C | Cc1ccc(Cn2nc(C)c(CCC(=O)O)c2C)cc1 |
| 181 to 183 °C | Cc1n[nH]c(C)c1C(C)C(=O)O (configuration not stated) |
| 163 to 165 °C | NC1CCC(c2nc(-c3ccccc3)n[nH]2)CC1 (configuration not stated) |
| 153 to 155 °C | N#Cc1cc(Cl)nc2ccccc12 |
| 146 to 148 °C | Cc1ccc(C(=O)N2CCCC(C(=O)O)C2)cc1 (configuration not stated) |
| 149 to 151 °C | Cn1ccc(C(=O)N2CCC[C@H]2C(=O)O)cc1=O |
| 118 to 120 °C | O=C1NC(=O)N(CCc2cccs2)C1=O |
| 261 to 263 °C | CNc1ccc([N+](=O)[O-])cc1C(=O)O |
| 143 to 145 °C | O=C(O)CCNS(=O)(=O)c1cccc(Cl)c1 |
| 157 to 159 °C | NC(=O)Cc1ccc(N)cc1 |
| 179 to 181 °C | COc1ccc(CCN2C(=O)NC(=O)C2=O)cc1 |
| 136 to 138 °C | O=[N+]([O-])c1ccc(C2CN=C(Nc3ccccc3)S2)cc1 (configuration not stated) |
| 127 to 129 °C | CC(=O)Nc1cc(F)ccc1-c1csc(N)n1 |
| 299 to 301 °C | O=C(O)c1csc(-c2nnc[nH]2)n1 |
| 102 to 104 °C | Cc1cc(NC(=O)OC(C)(C)C)sc1C |
| 160 to 162 °C | Oc1cn(-c2ccccc2)nn1 |

| melting point | Structure (SMILES) |
| --- | --- |
| 136 to 138 °C | CC1=CC(=C2Nc3cc(F)ccc3N2C(C)C)C=CC1=N |
| 89 to 91 °C | O=C1NCC2(CCCC2)O1 |
| 218 to 220 °C | CCOC(=O)c1c(C)c2c(=O)[nH]nc(S)n2c1C |
| 97 to 99 °C | Nc1cccc(OCc2cccnc2)c1 |
| 170 to 172 °C | Cc1ccc2cccnc2c1S(N)(=O)=O |
| 59 to 61 °C | N#CCC(=O)c1ccc(F)c(Cl)c1 |
| 241 to 243 °C | O=C(COc1ccccc1C(=O)O)Nc1ccc(Br)cc1 |
| 88 to 92 °C | COCc1ccc(C(=O)O)cc1 |
| 50 to 52 °C | c1ccc(CNc2cccnc2)nc1 |
| 132 to 134 °C | O=Cc1ccc([N+](=O)[O-])c(O)c1 |
| 174 to 176 °C | OCc1c(Cl)nc2sccn12 |
| 289 to 291 °C | Cc1oc2[nH]c(=O)n(-c3ccccc3)c(=O)c2c1C(=O)O |
| 128 to 130 °C | N#CCc1cc2ccccc2nc1Cl |
| 142 to 144 °C | CC(C)(C)OC(=O)N1CCc2ccccc2C1C(=O)O (configuration not stated) |
| 106 to 110 °C | CC(=O)c1cccc(S(=O)(=O)NCCC(=O)O)c1 |
| 129 to 131 °C | CN(C)C(=O)Sc1cnc2nccn2c1 |
| 145 to 147 °C | CCSc1ccc(C(=O)O)cc1 |
| 150 to 152 °C | CN(C)S(=O)(=O)c1ccc(N)nc1 |
| 41 to 46 °C | Cc1cc(C)c(C=O)cc1C |
| 120 to 122 °C | Cc1c(NC(=O)C(C)Cl)cccc1[N+](=O)[O-] (configuration not stated) |
| 159 to 161 °C | N#CCC(=O)Nc1ncccn1 |
| 160 to 162 °C | Cc1nccn1-c1ccc(N)cn1 |
| 231 to 233 °C | CCOc1ccc(NS(=O)(=O)c2ccc(C)c(C(=O)O)c2)cc1 |
| 117 to 119 °C | C=CC(=O)Nc1cccc(C#N)c1 |
| 140 to 145 °C | Sc1nc2ccccc2n1-c1ccccc1 |

| melting point | Structure (SMILES) |
| --- | --- |
| 131 to 133 °C | CC(C)(C)c1n[nH]cc1C=O |
| 135 to 137 °C | CCOC(=O)Cc1nnc(S)n1C |
| 165 to 167 °C | O=C(O)c1ccc(OC2CCCC2)nc1 |
| 88 to 91 °C | CCN(CC)S(=O)(=O)c1ccc(Cl)c([N+](=O)[O-])c1 |
| 163 to 165 °C | O=C(O)c1oc2ccccc2c1COc1ccccc1 |
| 77 to 79 °C | Cn1ccnc1-c1cc(Cl)ccn1 |
| 250 to 252 °C | CCOC(=O)c1c(-c2ccccc2)csc1NC(=O)C(C)Cl (configuration not stated) |
| 126 to 128 °C | Cc1cccc(C(C)C)c1NC(=O)C(C)Cl (configuration not stated) |
| 256 to 258 °C | CCCn1cnc2c1c(=O)[nH]c(=O)n2C |
| 151 to 153 °C | O=C(O)CCn1ncc2ccc([N+](=O)[O-])cc21 |
| 215 to 217 °C | O=S(=O)(Cc1nc2ccccc2[nH]1)c1ccccc1 |
| 175 to 186 °C | O=C(O)/C=C/c1ccc(Br)c(Cl)c1 |
| 75 to 77 °C | CC(C)(C)OC(=O)NC1(CO)CC1 |
| 109 to 111 °C | Nc1ccc(N2CCSCC2)cc1 |
| 149 to 151 °C | C#CCNS(=O)(=O)c1ccc(C(=O)O)cc1 |
| 145 to 147 °C | Cc1cc(C)c(C(=O)O)o1 |
| 188 to 190 °C | O=C(O)C=Cc1cccc2cccnc12 |
| 213 to 215 °C | Nc1nc2cc(Br)ccc2n1Cc1ccccc1 |
| 219 to 221 °C | Cc1ccc(S(=O)(=O)Nc2ccc(C(=O)O)cc2)cc1C |
| 84 to 86 °C | N#CCC1=NCCN1 |
| 264 to 266 °C | CC(C)NCCc1nc(-c2ccc(S(C)(=O)=O)cc2)c[nH]1 |
| 142 to 144 °C | CNC(=O)c1cc([N+](=O)[O-])ccc1F |
| 84 to 86 °C | CC(=O)NC1CCN(C(C)C)CC1 |

| Structure (SMILES) | melting point |
| --- | --- |
| O=C1CC2(CCCCC2)CN1 | 89 to 91 °C |
| CC(C)N(O)C(=O)C(=O)O | 99 to 101 °C |
| CC1(C)NC(=O)N(Cc2ccc(Cl)nc2)C1=O | 127 to 129 °C |
| O=S1(=O)CCNCC12CCCCC2 | 99 to 101 °C |
